Data reported in patent publication US7499847B2, “Crystalline VAP-1 and uses thereof” (Biotie Therapies Corporation, priority 2003, dated 2009).

Experiments:
[1] = test system: T1, Total rat MAO (rat liver mitochondrial preparate); assay: Total rat MAO activity, colourimetric assay (tyramine substrate); type: biochemical; conditions: rat liver MAO preparation, 0.5 mM tyramine, 1 h at 37° C.; read-out: Total MAO inhibitory activity IC50
T1 construct: Rat MAO was prepared from rat liver; Mitochondrial preparate was aliquoted and stored at −70° C
Experimental: Rat MAO was prepared from rat liver by rinsing a 1 g liver sample several times in 14 ml KCl-EDTA-solution to remove all blood. Then 1 g liver sample was homogenised in 4 ml ice-cold potassium phosphate buffer (0.1 M, pH 7.4) with an Ultra-Turrax homogeniser (setting 11 000 rpm, 4×10 s). After centrifugation at 500 g for 10 min at 4° C. the supematant was carefully withdrawn and was centrifuged at 12 300 g for 15 min at 4° C. The supernatant was discharged and sedimented mitochondria were resuspended in 4 ml fresh phosphate buffer and centrifuged as previously. The mitochondria were suspended in 4 ml phosphate buffer and homogenized with an Ultra-Turrax homogeniser (setting 11 000 rpm, 2×10 s). Mitochondrial preparate was aliquoted and stored at −70° C. […] To each well was added a predetermined amount of inhibitor if required. The amount of inhibitor varied in each assay but was generally at a final concentration of between 10 nM and […]. Controls lacked inhibitor. […] The plates were incubated for 30 min at 37° C. and the background absorbance measured at 490 nm using a Wallac Victor II multilabel counter. To initiate the enzyme reaction 20 μl of 5 mM tyramine (final concentration 0.5 mM) was added and the plate incubated for 1 h at 37° C. The increase in absorbance, reflecting MAO activity, was measured at 490nm. Inhibition was presented as percent inhibition compared to control after correcting for background absorbance and IC50 values calculated using GraphPad Prism. Clorgyline and pargyline (inhibitors of MAO-A and -B respectively) at 0.5 μM were added to some wells as positive controls for MAO inhibition.

[2] = molecular target: T2, Recombinant human VAP-1 SSAO (Homo sapiens, UniProt Q16853); assay: VAP-1 SSAO activity, coupled colourimetric assay (benzylamine substrate); type: biochemical; conditions: for IC50: CHO cell lysate with recombinant human VAP-1 SSAO, 1 mM benzylamine, 1 h at 37° C., read-out: VAP-1 SSAO inhibitory activity IC50; for Selectivity for VAP-1 SSAO over MAO: ratio of total rat MAO IC50 to human VAP-1 SSAO IC50
T2 construct: expressed in transfected cells; host or cells: CHO cells (clarified NP40 lysate used directly)
T2 sequence (Q16853 1-763): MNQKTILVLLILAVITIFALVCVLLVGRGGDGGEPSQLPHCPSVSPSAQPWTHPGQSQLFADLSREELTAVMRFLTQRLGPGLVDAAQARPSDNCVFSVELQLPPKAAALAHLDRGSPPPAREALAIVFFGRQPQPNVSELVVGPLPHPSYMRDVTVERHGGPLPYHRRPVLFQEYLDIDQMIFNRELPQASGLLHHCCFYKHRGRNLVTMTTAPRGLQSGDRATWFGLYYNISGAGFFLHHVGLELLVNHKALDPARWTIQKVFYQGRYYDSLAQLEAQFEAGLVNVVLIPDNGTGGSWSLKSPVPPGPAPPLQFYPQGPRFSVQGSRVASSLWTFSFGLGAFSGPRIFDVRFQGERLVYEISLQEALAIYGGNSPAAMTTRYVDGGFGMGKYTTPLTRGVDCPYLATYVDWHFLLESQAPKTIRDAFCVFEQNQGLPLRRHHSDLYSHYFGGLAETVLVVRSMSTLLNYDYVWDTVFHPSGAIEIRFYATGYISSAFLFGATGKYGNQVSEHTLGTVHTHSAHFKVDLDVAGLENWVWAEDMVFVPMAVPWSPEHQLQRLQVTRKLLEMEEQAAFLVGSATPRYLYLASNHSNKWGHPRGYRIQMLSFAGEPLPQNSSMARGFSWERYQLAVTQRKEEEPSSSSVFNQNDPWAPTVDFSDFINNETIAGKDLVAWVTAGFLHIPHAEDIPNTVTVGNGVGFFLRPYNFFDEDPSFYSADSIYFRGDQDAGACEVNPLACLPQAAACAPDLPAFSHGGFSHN
Experimental: VAP-1 SSAO activity was measured using the coupled colourimetric method essentially as described for monoamine oxidase and related enzymes. Recombinant human VAP-1 SSAO expressed in Chinese Hamster Ovary (CHO) cells was used as a source of VAP-1 SSAO for activity measurements. Native CHO cells have negligible SSAO activity. These cells and their culture have previously been described (Smith D J et al., 1998).
A cell lysate was prepared by suspending approximately 3.6×10^8 cells in 25 ml lysis buffer (150 mM NaCl, 10 mM Tris-Base pH 7.2, 1.5 mM MgCl2, 1% NP40) and incubating at 4° C. overnight on a rotating table. The lysate was clarified by centrifugation at 18000 g for 5 min at room temperature and the supematant used directly in the assay.
The VAP-1 SSAO assay was performed in 96 well microtitre plates as follows. To each well was added a predetermined amount of inhibitor if required. The amount of inhibitor varied in each assay but was generally at a final concentration of between 1 nM and 50 μM. Controls lacked inhibitor. The inhibitor was in a total volume of […] in water. The following reagents were then added. 0.2M potassium phosphate buffer pH 7.6 to a total reaction volume of 200 μl, 45 μl of freshly made chromogenic solution containing 1 mM 2,4-dichlorophenol, 500 μM 4-aminoantipyrine and 4 U/ml horseradish peroxidase and an amount of CHO cell lysate containing VAP-1 SSAO that caused a change of 0.6 A490 per h. This was within the linear response range of the assay.
The plates were incubated for 30 min at 37° C. and the background absorbance measured at 490 nm using a Wallac Victor II multilabel counter. To initiate the enzyme reaction 20 μl 10 mM benzylamine (final concentration=1 mM) was added and the plate incubated for 1 h at 37° C.
The increase in absorbance, reflecting VAP-1 SSAO activity, was measured at 490 nm. Inhibition was presented as percent inhibition compared to control after correcting for background absorbance and IC50. values calculated using GraphPad Prism.

| IC50 [1] [µM] | IC50 [2] [µM] | Selectivity for VAP-1 SSAO over MAO [2] | SMILES |
| --- | --- | --- | --- |
| 13 | 0.37 | 35 | CN(N)CC(O)COc1ccccc1.O=C(O)/C=C\C(=O)O (stereo not drawn) [Compound 1] |
| 8.7 | 0.52 | 17 | Cc1ccccc1OCC(O)CN(C)N.O=C(O)/C=C/C(=O)O (stereo not drawn) [Compound 2] |
| 3.3 | 0.26 | 13 | COC(COc1ccc(Cl)cc1)CN(C)N.O=C(O)/C=C/C(=O)O (stereo not drawn) [Compound 3] |
| 10 | 0.43 | 23 | Cc1ccc(OCC(O)CN(C)N)cc1.O=C(O)/C=C/C(=O)O (stereo not drawn) [Compound 4] |
| 4 | 0.52 | 8 | COC(COc1cccc2ccccc12)CN(C)N.O=C(O)/C=C\C(=O)O (stereo not drawn) [Compound 5] |
| 3.3 | 0.09 | 37 | COc1ccc(OCC(O)CNNc2ccccc2)cc1.Cl (stereo not drawn) [Compound 6] |
| 6 | 0.44 | 14 | COC(COc1ccc(C)cc1)CN(C)N.O=C(O)/C=C/C(=O)O (stereo not drawn) [Compound 7] |
| 10 | 0.65 | 15 | CN(N)CC(O)COc1cccc2ccccc12.O=C(O)/C=C\C(=O)O (stereo not drawn) [Compound 8] |
| 41 | 0.21 | 195 | COc1ccc(SCC(O)CN(C)N)cc1OC.O=C(O)/C=C/C(=O)O (stereo not drawn) [Compound 9] |
| 6 | 0.55 | 11 | CN(N)CC(O)COc1ccc2ccccc2c1.O=C(O)/C=C/C(=O)O (stereo not drawn) [Compound 10] |
| 11 | 0.27 | 41 | CN(N)CC(O)CSc1ccccc1.O=C(O)/C=C/C(=O)O (stereo not drawn) [Compound 11] |
| 37 | 0.33 | 112 | COc1cccc(OCC(O)CN(C)N)c1.O=C(O)/C=C/C(=O)O (stereo not drawn) [Compound 12] |
| 3.3 | 0.64 | 5 | COC(COc1ccc2ccccc2c1)CN(C)N.O=C(O)/C=C/C(=O)O (stereo not drawn) [Compound 13] |
| 3.4 | 0.37 | 9 | COC(CSc1ccccc1)CN(C)N.O=C(O)/C=C/C(=O)O (stereo not drawn) [Compound 14] |
| 7.4 | 0.35 | 21 | COc1ccc(OCC(O)CN(C)N)cc1.O=C(O)/C=C\C(=O)O (stereo not drawn) [Compound 16] |
| 6.1 | 0.43 | 14 | CN(N)CC(O)COc1ccc(Cl)cc1.O=C(O)/C=C/C(=O)O (stereo not drawn) [Compound 17] |
| 8.8 | 0.2 | 45 | CN(N)CC(O)CN(C)c1ccccc1.O=C(O)/C=C/C(=O)O (stereo not drawn) [Compound 19] |
| 9.6 | 0.34 | 28 | COC(CN(C)N)CN(C)c1ccccc1.O=C(O)/C=C/C(=O)O (stereo not drawn) [Compound 20] |
